Test results: publication PMC5458078, “Global mapping of CARM1 substrates defines enzyme specificity and substrate recognition” (Nature Communications, 2017)

Tests used:
MCF7 CARM1 KO cells = assay: Quantitative MS of ADMA-containing peptides in MCF7 CARM1 KO cells expressing CARM1 28-608 or CARM1 140-608, and in CARM1 KO; format: cell-based, human
MCF7 cells = assay: Quantitative nanoLC-MS/MS (TMT) of ADMA-containing peptides, CARM1 KO vs parental; format: cell-based, human; design: Fold change KO/WT: scale not given here
[1] = CARM1 140-608 vs WT, mean of 3 replicates, log2
[2] = KO vs WT, mean of 3 replicates, log2
[3] = MCF7, CARM1 KO vs WT, three biological replicates each
[4] = CARM1 140-608 versus WT, mean of three replicates (log2)
[5] = KO versus WT, mean of three replicates (log2)
[6] = ADMA-containing peptide, CARM1 knockout (KO) vs wild type (WT) MCF7 cells, 6-plex TMT experiment #1, three biological replicates each, sheet "MCF7"
[7] = difference of log2 means, CARM1 140-608 vs WT
[8] = difference of log2 means, KO vs WT
[9] = MCF7 CARM1 knockout vs wild type, 3 biological replicates each, values are on log2 scale
[10] = ratio on log2 scale, mean of 3 replicates
[11] = MCF7, CARM1 knockout vs wild type, n = 3 each
[12] = CARM1 140-608 vs WT, mean of 3 replicates (log2 scale)
[13] = KO vs WT, mean of 3 replicates (log2 scale)
[14] = MCF7, CARM1 KO (KO1-KO3) vs wild type (WT1-WT3)
[15] = CARM1 140-608 versus WT, difference of mean log2 values
[16] = CARM1 KO versus WT, difference of mean log2 values
[17] = log2 scale ratio, mean of n = 3
[18] = ADMA-containing peptide, MCF7, CARM1 knockout (KO1-3) vs wild type (WT1-3), TMT 6-plex experiment #1

SQAPArYSLQSANASSLSSGQLK
CARM1 140-608/WT (MCF7 CARM1 KO cells; [1]): -3.491
KO/WT (MCF7 CARM1 KO cells; [2]): -4.438
Fold change KO/WT (MCF7 cells; [3]): -4.438

QLrMQLQQrLQGQQFLNQSR
CARM1 140-608/WT (MCF7 CARM1 KO cells; [4]): -0.1108
KO/WT (MCF7 CARM1 KO cells; [5]): -1.926
Fold change KO/WT (MCF7 cells; [6]): -2.764

VrLPCQPLVPGPELRPSAAELK
CARM1 140-608/WT (MCF7 CARM1 KO cells; [7]): -1.578
KO/WT (MCF7 CARM1 KO cells; [8]): -2.704
Fold change KO/WT (MCF7 cells; [9]): -2.704

KDLYANTVLSGGSTMYPGIADr
CARM1 140-608/WT (MCF7 CARM1 KO cells; [1]): -0.3764
KO/WT (MCF7 CARM1 KO cells; [2]): -0.3193
Fold change KO/WT (MCF7 cells; [3]): -0.3193

LPGTPPLFSPPPrHHLDPHR
CARM1 140-608/WT (MCF7 CARM1 KO cells; [1]): -1.232
KO/WT (MCF7 CARM1 KO cells; [2]): -1.196
Fold change KO/WT (MCF7 cells; [3]): -1.221

TPGQPGPQrFDGPPGQQVQPrFDGVPQrFDGPQHQQASR
CARM1 140-608/WT (MCF7 CARM1 KO cells; [4]): -1.05
KO/WT (MCF7 CARM1 KO cells; [5]): -1.824
Fold change KO/WT (MCF7 cells; [6]): -1.547

GGAPFQFGGQrRPLLSQLK
CARM1 140-608/WT (MCF7 CARM1 KO cells; [10]): 0.1701
KO/WT (MCF7 CARM1 KO cells; [10]): 0.08114
Fold change KO/WT (MCF7 cells; [11]): -0.3698

GGrGrGSLNHMVVDHRPK
CARM1 140-608/WT (MCF7 CARM1 KO cells; [12]): 0.3773
KO/WT (MCF7 CARM1 KO cells; [13]): 0.3337
Fold change KO/WT (MCF7 cells; [14]): 0.3337

LIAAAQSGLPVrIESIK
CARM1 140-608/WT (MCF7 CARM1 KO cells; [12]): -0.3613
KO/WT (MCF7 CARM1 KO cells; [13]): -0.4316
Fold change KO/WT (MCF7 cells; [14]): -0.4316

GGrGPFPLQVVSVGGPAR
CARM1 140-608/WT (MCF7 CARM1 KO cells; [10]): -0.1124
KO/WT (MCF7 CARM1 KO cells; [10]): -0.2975
Fold change KO/WT (MCF7 cells; [11]): -0.2975

FEGGHGPSGAAIrFDGPHGQPGGGIrFEGPLLQQGVGMrFEGPHGQSVAGLR
CARM1 140-608/WT (MCF7 CARM1 KO cells; [4]): -0.8121
KO/WT (MCF7 CARM1 KO cells; [5]): -1.343
Fold change KO/WT (MCF7 cells; [6]): -1.343

APGPrGSYLGGYSAGrGIYSR
CARM1 140-608/WT (MCF7 CARM1 KO cells; [12]): 0.2879
KO/WT (MCF7 CARM1 KO cells; [13]): 0.5206
Fold change KO/WT (MCF7 cells; [14]): 0.2541

LQNAFWEHGASrAMLPGSPLFTrAPPPK
CARM1 140-608/WT (MCF7 CARM1 KO cells; [4]): -1.727
KO/WT (MCF7 CARM1 KO cells; [5]): -2.217
Fold change KO/WT (MCF7 cells; [14]): -2.217

LTVPrYSIPTGDPPPYPEIASQLAQGR
CARM1 140-608/WT (MCF7 CARM1 KO cells; [15]): -0.6093
KO/WT (MCF7 CARM1 KO cells; [16]): -2.766
Fold change KO/WT (MCF7 cells; CARM1 KO vs wild type MCF7 cells, 3 biological replicates each): -2.163

GAAGAVTQSLSrTPTATTSGIrATLTPTVLAPrLPQPPQNPTNIQNFQLPPGMVLVR
CARM1 140-608/WT (MCF7 CARM1 KO cells; [17]): -3.099
KO/WT (MCF7 CARM1 KO cells; [17]): -4.565
Fold change KO/WT (MCF7 cells; [18]): -4.565

TDGFAEAIHSPQVAGVPrFR
CARM1 140-608/WT (MCF7 CARM1 KO cells; [15]): -1.17
KO/WT (MCF7 CARM1 KO cells; [16]): -1.53
Fold change KO/WT (MCF7 cells; [18]): -1.53

QALGSPLAGISTrLPGPGEPVPGPAGPAQFIELrHNVQK
CARM1 140-608/WT (MCF7 CARM1 KO cells; [7]): -1.36
KO/WT (MCF7 CARM1 KO cells; [8]): -2.458
Fold change KO/WT (MCF7 cells; [9]): -2.458

FDGSPGQMGGGGPLrFEGPQGQLGGGCPLrFEGPPGPVGTPLrFEGPIGQAGGGGFR
CARM1 140-608/WT (MCF7 CARM1 KO cells; [4]): 0.07812
KO/WT (MCF7 CARM1 KO cells; [5]): -4.068
Fold change KO/WT (MCF7 cells; [6]): -4.068

STArFTLNPNPTGVQNPHIER
CARM1 140-608/WT (MCF7 CARM1 KO cells; [7]): -1.926
KO/WT (MCF7 CARM1 KO cells; [8]): -2.347
Fold change KO/WT (MCF7 cells; [6]): -1.9764

RPPTPGPDTSVSGPrLTLALAPGPPPPPSR
CARM1 140-608/WT (MCF7 CARM1 KO cells; [7]): -1.4
KO/WT (MCF7 CARM1 KO cells; [8]): -1.877
Fold change KO/WT (MCF7 cells; [6]): -1.877

MGTPVPRPPQDMGQIGVrTPLGPrVAAPVGPVGPTPTVLPMGAPVPrPR
CARM1 140-608/WT (MCF7 CARM1 KO cells; [12]): -2.519
KO/WT (MCF7 CARM1 KO cells; [13]): -3.3286
Fold change KO/WT (MCF7 cells; [14]): -2.803

APrFPSNIIVTNGAAR
CARM1 140-608/WT (MCF7 CARM1 KO cells; [4]): -0.8621
KO/WT (MCF7 CARM1 KO cells; [5]): -1.771
Fold change KO/WT (MCF7 cells; [14]): -1.771

MGTPVPrPPQDMGQIGVrTPLGPrVAAPVGPVGPTPTVLPMGAPVPrPR
CARM1 140-608/WT (MCF7 CARM1 KO cells; [12]): -1.761
KO/WT (MCF7 CARM1 KO cells; [13]): -2.783
Fold change KO/WT (MCF7 cells; [14]): -2.587

QIrFSQGQQLVTK
CARM1 140-608/WT (MCF7 CARM1 KO cells; [10]): -1.837
KO/WT (MCF7 CARM1 KO cells; [10]): -2.537
Fold change KO/WT (MCF7 cells; [3]): -2.537

VLGIIPSSTGTSQQTFTSFQPrTATVTIrPNTSGSGGTTSNSQVITGPQIrPGMTVIrTPLQQSTLGK
CARM1 140-608/WT (MCF7 CARM1 KO cells; [1]): -2.572
KO/WT (MCF7 CARM1 KO cells; [2]): -6.437
Fold change KO/WT (MCF7 cells; [3]): -6.437

SGFAATSQPGPrLPFIQHSQNPR
CARM1 140-608/WT (MCF7 CARM1 KO cells; mean, CARM1 140-608 versus WT (log2 scale)): -0.196
KO/WT (MCF7 CARM1 KO cells; mean, CARM1 KO versus WT (log2 scale)): -1.374
Fold change KO/WT (MCF7 cells; [11]): -1.049
